The results in this text go back to US6469168B1, “Piperazinylalkylthiopyrimidine derivatives, pharmaceutical compositions containing the same, and a process for the preparation of the active substance” (EGIS Gyógyszergyár Rt., priority 1999, dated 2002).

Where a name gives a salt, the structure may show the parent alone. Read-outs that look alike come from different tables or passages of the source.

The subject of one series is male SPRD rats. The experiment in a line: Elevated plus-maze test. It is filed as in vivo, rat. The following applies: for minimal effective dose: Rattus norvegicus, po, 1 h, read-out: Minimum effective dose. How it is done:
1. Elevated Plus-Maze Test
The tests were carried out on male SPRD rats weighing 220 to 260 g. Each group of animal consisted of 8 to 10 pieces of rat. The substance to be examined or the vehicle (i.e. distilled water or a 0.4% solution of methylcellulose) was administered to the animals in a volume of 5 ml/kg as a solution or suspension per os 60 minutes prior to the test.
The elevated plus-maze consists of two open and two 40 cm wall enclosed arms of the same size (50×15 cm) arranged in the shape of a cross. The arms of the same type are opposite to each other. The junction of the four arms forms a central square area (15×15 cm). The apparatus is made of a wooden material elevated to a height of 50 cm and illuminated by a dim light from above. The essence of the method is that during the exploration of the apparatus, the animals spend considerably more time in the closed arms than in the open arms due to the natural fear from open space and height. […] Methods., 14, 149-167 (1985)].

The next series has as its system male NMRI mice. The experiment in a line: Determination of the spontaneous motor activity. The following applies: p.o., 60 minutes prior to the test, dose producing 50% of inhibition of motor activity. How it is done:
2. Determination of the Spontaneous Motor Activity
For the experiments, male NMRI mice weighing 20 to 25 g were used. Each treatment group consisted of 10 mice. The substance to be examined or the vehicle (i.e. a 0.4% solution of methylcellulose) was administered to the animals in a volume of 20 ml/kg as a suspension per os 60 minutes prior to the test. […] In case of anxiolytics, the value of the anxiolytic effect depends on the presence or absence of the sedative action (the latter is […]). For the experiments, an apparatus “digital motimeter” having 10 measuring places was used. The motion of the animals was indicated by the interruption of three parallel beams of infrared light at each measuring place, and the interruptions were recorded by the apparatus. The activity of one animal was determined at each measuring place. […] Int.

The mark [1] stands for this setting: p.o., 60 minutes prior to the test, male SPRD rats, time spent in and entries into open arms.

In the case of “4,6-Diamino-2-[2-(4-methyl-1-piperazinyl)propylthio]-5-(2-methoxybenzyl)pyrimidine trihydrochloride hydrate [Example 4]”, the Minimum effective dose in the series on male SPRD rats (setting [1]) was found to be 1 mg/kg. In addition, the ID50 with male NMRI mice was 32.8 mg/kg. In the case of “4,6-Diamino-2-[2-/4-(2-dimethylaminoethyl)-1-piperazinyl/-ethyl-thio]-5-(2-methoxybenzyl)pyrimidine tetrahydrochloride dihydrate [Example 6]”, in the series on male SPRD rats (setting [1]), the Minimum effective dose is listed as 0.03 mg/kg. In the series on male NMRI mice, the ID50 is reported as greater than 100 mg/kg.

On to “4,6-Diamino-2-[3-(1-piperazinyl)ethylthio]-5-(2-ethoxybenzyl)-pyrimidine trihydrochloride trihydrate [Example 14]”, for which, in the series with male SPRD rats (setting [1]), the Minimum effective dose stood at 1 mg/kg. Take “4,6-Diamino-2-[4-(4-methyl-1-piperazinyl)ethylthio]-5-(2-ethoxybenzyl)pyrimidine trihydrochloride hydrate [Example 13]”: the Minimum effective dose with male SPRD rats (setting [1]) is recorded as 1 mg/kg. Regarding “4,6-Diamino-5-(2-methoxybenzyl)-2-[2-(1-piperazinyl)ethylthio]-pyrimidine fumarate [Example 2]”, the Minimum effective dose with male SPRD rats (setting [1]) is on record as 1 mg/kg. This compound showed an ID50 in the series with male NMRI mice greater than 100 mg/kg. As for `COc1ccccc1Cc1c(N)nc(SCCN2CCN(C(C)C)CC2)nc1N` (as salt: hydrochloride) (hydrate or solvate) [Example 5, 4,6-Diamino-2-[2-(4-isopropyl-1-piperazinyl)ethylthio]-5-(2-methoxybenzyl)pyrimidine trihydrochloride hydrate], the melting point lay in the range of 253 to 255 °C. For `COc1ccccc1Cc1c(N)nc(SCCCCN2CCN(C)CC2)nc1N` (as salt: hydrochloride) (hydrate or solvate) [Example 8, 4,6-Diamino-2-[4-(4-methyl-1-piperazinyl)butylthio]-5-(2-methoxybenzyl)pyrimidine trihydrochloride hydrate], the melting point was found to be 202 °C. The same measure, in the same setting: the figure for `Nc1nc(SCCCN2CCNCC2)nc(N)c1Cc1ccc(Cl)cc1` (as salt: hydrochloride) (hydrate or solvate) [Example 17, 4,6-Diamino-2-[3-(1-piperazinyl)propylthio]-5-(4-chlorobenzyl)-pyrimidine trihydrochloride trihydrate] is 187 °C; for `Nc1nc(SCCN2CCNCC2)nc(N)c1Cc1ccc(F)cc1` (as salt: hydrochloride) (hydrate or solvate) [Example 19, 4,6-Diamino-2-[2-(1-piperazinyl)ethylthio]-5-(4-fluorobenzyl)-pyrimidine trihydrochloride hydrate] it is 168 to 170 °C; for `COc1ccccc1Cc1c(N)nc(SCCN2CCN(CCCN(C)C)CC2)nc1N` (as salt: hydrochloride) (hydrate or solvate) [Example 26, 4,6-Diamino-2-{2-[4-(3-dimethylaminopropyl)-1-piperazinyl]-ethylthio}-5-(2-methoxybenzyl)pyrimidine tetrahydrochloride hydrate] it is 262 to 264 °C.

In turn, `COc1ccccc1Cc1c(N)nc(SCCCN2CCNCC2)nc1N` (as salt: hydrochloride) [Example 10, 4,6-Diamino-2-[3-(1-piperazinyl)propylthio]-5-(2-methoxy-benzyl)pyrimidine trihydrochloride] displayed a melting point of 197 to 198 °C. `COc1ccccc1Cc1c(N)nc(SCCCCN2CCNCC2)nc1N` (as salt: hydrochloride) [Example 18, 4,6-Diamino-2-[4-(1-piperazinyl)butylthio]-5-(2-methoxybenzyl)-pyrimidine trihydrochloride] registered a melting point of 255 °C.

As for `COc1ccccc1Cc1c(N)nc(SCCN2CCNCC2)nc1N` [1 (besylate), 4,6-Diamino-5-(2-methoxybenzyl)-2-[2-(1-piperazinyl)ethylthio]-pyrimidine], the Minimum effective dose in the series on male SPRD rats (setting [1]) was 1 mg/kg. The same compound yielded an ID50 with male NMRI mice greater than 90 mg/kg.

In the case of `COc1ccccc1Cc1c(N)nc(SCCN2CCNCC2)nc1N` [Example 1 (fumarate), 4,6-Diamino-5-(2-methoxybenzyl)-2-[2-(1-piperazinyl)ethylthio]-pyrimidine], the Minimum effective dose with male SPRD rats (setting [1]) is listed as 3 mg/kg. This compound displayed an ID50 with male NMRI mice greater than 100 mg/kg. For the compound `COc1ccccc1Cc1c(N)nc(SCCN2CCN(C(C)C)CC2)nc1N` [Example 5, 4,6-Diamino-2-[2-(4-isopropyl-1-piperazinyl)ethylthio]-5-(2-methoxybenzyl)pyrimidine trihydrochloride hydrate], the minimal effective dose with male SPRD rats (setting [1]) is 3 mg/kg. The ID50 in the series on male NMRI mice is greater than 100 mg/kg. With `CCOc1ccccc1Cc1c(N)nc(SCCCN2CCN(C=O)CC2)nc1N` [Example 7, 4,6-Diamino-2-[3-(4-formyl-1-piperazinyi)propylthio]-5-(2-ethoxybenzyl)pyrimidine], in the series on male SPRD rats (setting [1]), the Minimum effective dose is given as less than 1 mg/kg. The same compound yielded an ID50 with male NMRI mice greater than 100 mg/kg. For the compound `COc1ccccc1Cc1c(N)nc(SCCCCN2CCN(C)CC2)nc1N` [Example 8, 4,6-Diamino-2-[4-(4-methyl-1-piperazinyl)butylthio]-5-(2-methoxybenzyl)pyrimidine trihydrochloride hydrate], the minimal effective dose in the series on male SPRD rats (setting [1]) was determined as 3 mg/kg. In the series on male NMRI mice, this compound had an ID50 greater than 100 mg/kg. `COc1ccccc1Cc1c(N)nc(SCCCN2CCN(C=O)CC2)nc1N` [Example 9, 4,6-Diamino-2-[3-(4-formyl-1-piperazinyl)propylthio]-5-(2-methoxybenzyl)pyrimidine] gave a melting point of 174 to 176 °C. Also, the minimal effective dose with male SPRD rats (setting [1]) was determined as 3 mg/kg.

Regarding `COc1ccccc1Cc1c(N)nc(SCCCN2CCNCC2)nc1N` [Example 10, 4,6-Diamino-2-[3-(1-piperazinyl)propylthio]-5-(2-methoxy-benzyl)pyrimidine trihydrochloride], in the series on male SPRD rats (setting [1]), the minimal effective dose was determined as 1 mg/kg. Compound `COc1ccccc1Cc1c(N)nc(SCCCN2CCN(C(C)=O)CC2)nc1N` [Example 12, 4,6-Diamino-2-[3-(4-acetyl-1-piperazinyl)propylthio]-5-(2-methoxybenzyl)pyrimidine] gave a melting point of 208 to 209 °C. Further, the minimal effective dose in the series on male SPRD rats (setting [1]) worked out at 1 mg/kg. As for `COc1ccccc1Cc1c(N)nc(SCCN2CCN(C(C)=O)CC2)nc1N` [Example 16, 4,6-Diamino-2-[2-(4-acetyl-1-piperazinyl)ethylthio]-5-(2-methoxybenzyl)pyrimidine], the melting point fell in the range of 198.5 to 199.5 °C. The minimal effective dose with male SPRD rats (setting [1]) came out at 3 mg/kg. For the same compound, in the series with male NMRI mice, the ID50 is given as greater than 100 mg/kg.

With `Nc1nc(SCCCN2CCNCC2)nc(N)c1Cc1ccc(Cl)cc1` [Example 17, 4,6-Diamino-2-[3-(1-piperazinyl)propylthio]-5-(4-chlorobenzyl)-pyrimidine trihydrochloride trihydrate], the minimal effective dose in the series on male SPRD rats (setting [1]) was determined as 1 mg/kg. Besides, the ID50 with male NMRI mice is reported as greater than 100 mg/kg. With `COc1ccccc1Cc1c(N)nc(SCCCCN2CCNCC2)nc1N` [Example 18, 4,6-Diamino-2-[4-(1-piperazinyl)butylthio]-5-(2-methoxybenzyl)-pyrimidine trihydrochloride], in the series with male SPRD rats (setting [1]), the minimal effective dose was 1 mg/kg. The compound further yielded an ID50 with male NMRI mice greater than 100 mg/kg. Consider `Nc1nc(SCCN2CCNCC2)nc(N)c1Cc1ccc(F)cc1` [Example 19, 4,6-Diamino-2-[2-(1-piperazinyl)ethylthio]-5-(4-fluorobenzyl)-pyrimidine trihydrochloride hydrate], for which the minimal effective dose in the series with male SPRD rats (setting [1]) was determined as 0.01 mg/kg. This compound returned an ID50 with male NMRI mice greater than 100 mg/kg. The compound `CC(C)c1ccc(Cc2c(N)nc(SCCN3CCNCC3)nc2N)cc1` [Example 25, 4,6-Diamino-2-[2-(1-piperazinyl)ethylthio]-5-(4-isopropylbenzyl)-pyrimidine] displayed a melting point of 63 to 64 °C. Turning to `COc1ccccc1Cc1c(N)nc(SCCN2CCN(CCCN(C)C)CC2)nc1N` [Example 26, 4,6-Diamino-2-{2-[4-(3-dimethylaminopropyl)-1-piperazinyl]-ethylthio}-5-(2-methoxybenzyl)pyrimidine tetrahydrochloride hydrate], in the series on male SPRD rats (setting [1]), the minimal effective dose is 0.3 mg/kg. The compound also returned an ID50 with male NMRI mice greater than 100 mg/kg. As to `CN1C(=O)CN=C(c2ccccc2)c2cc(Cl)ccc21` [diazepam, 7-chloro-1,3-dihydro-1-methyl-5-phenyl-2H-1,4-benzodiazepine-2-one, reference compound], in the series on male SPRD rats, the minimal effective dose came out at 1 mg/kg.
